Measured values as given in US20080241274A1 (ZIOPHARM Oncology, Inc., priority 2006, published 2008).

Columns and labels:
[1] = test system: ovarian cancer with brain metastases; assay: Phase I study, patient with ovarian cancer with brain metastases; assay type: in vivo, human; settings: 400 mg BID continuous treatment; after 22 days of treatment; person
Description: Treatment is ongoing. […] Treatment is ongoing.

[2] = test system: MCF-7 ER-positive breast cancer; assay: Monolayer assay (DNA content by propidium iodide), single agents and indibulin combinations, MCF-7; assay type: cell-based, human
Description: The monolayer assay determines the in vitro antitumor activity of test compounds and their capacity to inhibit survival and proliferation of established tumor cell lines. These effects can be determined by establishing the number of viable cells based on measuring the DNA content using propidium iodide. […] Between 5,000 and 10,000 cells were seeded in 96 well plates on Day 0 and the compounds were added 1 day later and incubated for 4 days. The activity was assessed by their IC50 and IC70 values.
Growth IC50 and IC70 values (Table 2) were determined using XLfit software package, and used to set the concentration ranges and drug ratios for the synergy detection part of the study.
Chou-Talalay median effect method was used to quantitatively characterize drug-drug interaction [Chou T. C. Theoretical basis, experimental design, and computerized simulation of synergism and antagonism in drug combination studies. Pharmacol Rev. 2006 September; 58(3):621-81]. […] Mixtures of the drugs at multiples of their single agent IC50's were prepared, as well as serial dilutions of the mixture. Additionally, single agent dose response was determined for the same concentration ranges as used for combination study.
The coefficient of interaction (CI(IC50)) at IC50 and coefficient of interaction under optimal experimental concentrations (CI(e)) were determined using CalcuSyn software package (Table 3, tests were performed in quadruplicate, mean values reported). Commonly, experimental values of CI<0.8 are considered synergistic, 0.8<CI<1.2 additive.

[3] = MCF7, indibulin + 5-FU (5FU:indibulin 10.9:1), concentration of the named drug in the combination
[4] = MCF7, indibulin + paclitaxel (paclitaxel:indibulin 0.27:1), concentration of the named drug in the combination
[5] = MCF7, indibulin + tamoxifen (tamoxifen:indibulin 100:1), concentration of the named drug in the combination
[6] = MCF7, indibulin + vinorelbine (vinorelbine:indibulin 0.016:1), concentration of the named drug in the combination

SMILES: O=C(Nc1ccncc1)C(=O)c1cn(Cc2ccc(Cl)cc2)c2ccccc12 [Indibulin, N-(pyridin-4-yl)-[1-(4-chlorobenzyl)-indol-3-yl]-glyoxylic acid amide]
- Reduction of CA125 level from baseline [1]: 11%
- IC50 ([2]; Homo sapiens, MCF7, MCF7, single agent (combination study), read-out: Single Agent IC50): 13 ng/mL
- Single Agent IC84 ([2]; MCF7, single agent (combination study)): 53 ng/mL
- Combination IC50 [2, 3]: 5 ng/mL
- Combination IC60 [2, 3]: 2.8 ng/mL
- Combination IC50 ([2]; MCF7, indibulin + doxorubicin, concentration of the named drug in the combination): 11 ng/mL
- Combination IC50 [2, 4]: 4 ng/mL
- Combination IC84 [2, 4]: 10 ng/mL
- Combination IC50 [2, 5]: 4 ng/mL
- Combination IC60 [2, 5]: 6.4 ng/mL
- Combination IC50 [2, 6]: 8 ng/mL
- Combination IC60 [2, 6]: 6 ng/mL
